According to patent US11542240B2, “STK19 inhibitors for treatment of cancer” (TRUSTEES OF BOSTON UNIVERSITY, priority 2018, dated 2023):
Where two headings read alike, the source gives them in different places.

How the values were obtained:
Experiment in all cases: biochemical
Assay type in all cases: binding
[1] = target: panel of 468 diverse kinases (Homo sapiens, UniProt Q13233); conditions: MAP3K1; 1000 nM; read-out: Percent Control
[2] = target: panel of 468 diverse kinases (Homo sapiens, UniProt Q9NYL2); conditions: ZAK; 1000 nM; read-out: Percent Control
[3] = target: panel of 468 diverse kinases (Homo sapiens, UniProt Q04912); conditions: MST1R; 1000 nM; read-out: Percent Control
[4] = target: panel of 468 diverse kinases (Homo sapiens, UniProt P07948); conditions: LYN; 1000 nM; read-out: Percent Control
[5] = target: panel of 468 diverse kinases (Homo sapiens, UniProt Q9UQB9); conditions: AURKC; 1000 nM; read-out: Percent Control
[6] = target: panel of 468 diverse kinases (Homo sapiens, UniProt O43283); conditions: LZK; 1000 nM; read-out: Percent Control
[7] = target: panel of 468 diverse kinases (Homo sapiens, UniProt Q5S007); conditions: LRRK2; 1000 nM; read-out: Percent Control
[8] = target: panel of 468 diverse kinases (Homo sapiens, UniProt P51817); conditions: PRKX; 1000 nM; read-out: Percent Control
[9] = target: panel of 468 diverse kinases (Homo sapiens, UniProt Q9Y3S1); conditions: WNK2; 1000 nM; read-out: Percent Control
[10] = target: panel of 468 diverse kinases (Homo sapiens, UniProt P52564); conditions: MEK6; 1000 nM; read-out: Percent Control
[11] = target: panel of 468 diverse kinases (Homo sapiens, UniProt P31749); conditions: AKT1; 1000 nM; read-out: Percent Control
[12] = target: panel of 468 diverse kinases (Homo sapiens, UniProt Q9UL54); conditions: TAOK2; 1000 nM; read-out: Percent Control
[13] = target: panel of 468 diverse kinases (Homo sapiens, UniProt Q99640); conditions: PKMYT1; 1000 nM; read-out: Percent Control
[14] = target: panel of 468 diverse kinases (Homo sapiens, UniProt Q9BUB5); conditions: MKNK1; 1000 nM; read-out: Percent Control
[15] = target: panel of 468 diverse kinases (Homo sapiens, UniProt Q13043); conditions: MST1; 1000 nM; read-out: Percent Control
[16] = target: panel of 468 diverse kinases (Homo sapiens, UniProt P00533, L858R); conditions: EGFR(L858R); 1000 nM; read-out: Percent Control
[17] = target: panel of 468 diverse kinases (Homo sapiens, UniProt P53778); conditions: p38-gamma; 1000 nM; read-out: Percent Control
[18] = target: panel of 468 diverse kinases (Homo sapiens, UniProt O75582); conditions: 1000 nM, read-out: Percent Control
[19] = target: panel of 468 diverse kinases (Homo sapiens, UniProt Q07912); conditions: TNK2; 1000 nM; read-out: Percent Control
[20] = target: panel of 468 diverse kinases (Homo sapiens, UniProt P06239); conditions: LCK; 1000 nM; read-out: Percent Control
[21] = target: panel of 468 diverse kinases (Homo sapiens, UniProt Q12852); conditions: DLK; 1000 nM; read-out: Percent Control
[22] = target: panel of 468 diverse kinases (Homo sapiens, UniProt P29376); conditions: LTK; 1000 nM; read-out: Percent Control
[23] = target: panel of 468 diverse kinases (Homo sapiens, UniProt Q96BR1); conditions: SGK3; 1000 nM; read-out: Percent Control
[24] = target: panel of 468 diverse kinases (Homo sapiens, UniProt P04626); conditions: ERBB2; 1000 nM; read-out: Percent Control
[25] = target: panel of 468 diverse kinases (Homo sapiens, UniProt Q16288); conditions: TRKC; 1000 nM; read-out: Percent Control
[26] = target: panel of 468 diverse kinases (Homo sapiens, UniProt P00519, Y253F); conditions: ABL1(Y253F)-phosphorylated; 1000 nM; read-out: Percent Control
[27] = target: panel of 468 diverse kinases (Homo sapiens, UniProt Q09013); conditions: DMPK; 1000 nM; read-out: Percent Control
[28] = target: panel of 468 diverse kinases (Homo sapiens, UniProt Q9UM73, L1196M); conditions: ALK(L1196M); 1000 nM; read-out: Percent Control
[29] = target: panel of 468 diverse kinases (Homo sapiens, UniProt P07949, V804M); conditions: RET(V804M); 1000 nM; read-out: Percent Control
[30] = target: panel of 468 diverse kinases (Homo sapiens, UniProt O96017); conditions: CHEK2; 1000 nM; read-out: Percent Control
[31] = target: panel of 468 diverse kinases (Homo sapiens, UniProt Q9Y6M4); conditions: CSNK1G3; 1000 nM; read-out: Percent Control

Sequence of panel of 468 diverse kinases (Homo sapiens, UniProt P00533, L858R) (P00533 25-1210 L858R limits assumed): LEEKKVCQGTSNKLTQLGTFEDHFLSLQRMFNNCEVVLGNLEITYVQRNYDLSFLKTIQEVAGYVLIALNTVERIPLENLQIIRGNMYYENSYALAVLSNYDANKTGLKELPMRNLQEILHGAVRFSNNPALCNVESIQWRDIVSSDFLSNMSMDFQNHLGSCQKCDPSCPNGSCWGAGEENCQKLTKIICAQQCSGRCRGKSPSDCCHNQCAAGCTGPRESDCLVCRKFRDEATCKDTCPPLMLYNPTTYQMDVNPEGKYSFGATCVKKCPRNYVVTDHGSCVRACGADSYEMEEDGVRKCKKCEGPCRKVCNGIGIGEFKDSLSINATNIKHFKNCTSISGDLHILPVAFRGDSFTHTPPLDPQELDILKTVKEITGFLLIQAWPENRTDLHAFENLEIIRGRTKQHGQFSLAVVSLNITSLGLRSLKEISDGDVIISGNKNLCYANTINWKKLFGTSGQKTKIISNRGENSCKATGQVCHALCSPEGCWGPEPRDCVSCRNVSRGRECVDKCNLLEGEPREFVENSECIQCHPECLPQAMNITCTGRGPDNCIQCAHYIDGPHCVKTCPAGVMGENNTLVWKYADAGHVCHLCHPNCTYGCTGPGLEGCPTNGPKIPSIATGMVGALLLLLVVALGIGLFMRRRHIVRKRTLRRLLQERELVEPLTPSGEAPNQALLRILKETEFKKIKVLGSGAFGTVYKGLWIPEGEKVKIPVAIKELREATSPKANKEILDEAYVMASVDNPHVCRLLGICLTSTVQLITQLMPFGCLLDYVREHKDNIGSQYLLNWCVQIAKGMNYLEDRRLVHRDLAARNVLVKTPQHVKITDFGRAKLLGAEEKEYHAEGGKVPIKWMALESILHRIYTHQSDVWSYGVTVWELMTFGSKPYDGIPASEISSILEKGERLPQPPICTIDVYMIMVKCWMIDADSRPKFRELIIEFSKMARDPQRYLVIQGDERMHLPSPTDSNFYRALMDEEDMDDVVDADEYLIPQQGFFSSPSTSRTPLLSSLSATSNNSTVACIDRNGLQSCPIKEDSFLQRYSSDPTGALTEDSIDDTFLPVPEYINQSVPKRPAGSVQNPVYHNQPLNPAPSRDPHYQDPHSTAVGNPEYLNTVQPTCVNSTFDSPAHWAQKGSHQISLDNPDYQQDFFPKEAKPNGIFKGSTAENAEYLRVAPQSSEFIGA
Sequence of panel of 468 diverse kinases (Homo sapiens, UniProt P06239) (P06239 2-509 limits assumed): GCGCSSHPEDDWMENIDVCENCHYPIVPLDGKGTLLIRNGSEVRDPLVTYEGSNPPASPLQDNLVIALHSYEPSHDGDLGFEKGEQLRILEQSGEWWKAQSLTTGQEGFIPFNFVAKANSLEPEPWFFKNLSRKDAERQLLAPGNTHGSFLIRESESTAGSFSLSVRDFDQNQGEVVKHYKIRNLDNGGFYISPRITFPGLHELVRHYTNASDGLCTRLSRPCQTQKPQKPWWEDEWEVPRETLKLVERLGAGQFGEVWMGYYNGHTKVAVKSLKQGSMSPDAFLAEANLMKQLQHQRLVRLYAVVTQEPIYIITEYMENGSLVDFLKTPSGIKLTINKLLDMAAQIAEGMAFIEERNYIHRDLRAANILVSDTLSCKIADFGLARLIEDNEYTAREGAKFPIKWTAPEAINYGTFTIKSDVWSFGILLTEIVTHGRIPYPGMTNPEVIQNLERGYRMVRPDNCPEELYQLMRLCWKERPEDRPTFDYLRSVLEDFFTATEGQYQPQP
Sequence of panel of 468 diverse kinases (Homo sapiens, UniProt Q13233) (Q13233 2-1512 limits assumed): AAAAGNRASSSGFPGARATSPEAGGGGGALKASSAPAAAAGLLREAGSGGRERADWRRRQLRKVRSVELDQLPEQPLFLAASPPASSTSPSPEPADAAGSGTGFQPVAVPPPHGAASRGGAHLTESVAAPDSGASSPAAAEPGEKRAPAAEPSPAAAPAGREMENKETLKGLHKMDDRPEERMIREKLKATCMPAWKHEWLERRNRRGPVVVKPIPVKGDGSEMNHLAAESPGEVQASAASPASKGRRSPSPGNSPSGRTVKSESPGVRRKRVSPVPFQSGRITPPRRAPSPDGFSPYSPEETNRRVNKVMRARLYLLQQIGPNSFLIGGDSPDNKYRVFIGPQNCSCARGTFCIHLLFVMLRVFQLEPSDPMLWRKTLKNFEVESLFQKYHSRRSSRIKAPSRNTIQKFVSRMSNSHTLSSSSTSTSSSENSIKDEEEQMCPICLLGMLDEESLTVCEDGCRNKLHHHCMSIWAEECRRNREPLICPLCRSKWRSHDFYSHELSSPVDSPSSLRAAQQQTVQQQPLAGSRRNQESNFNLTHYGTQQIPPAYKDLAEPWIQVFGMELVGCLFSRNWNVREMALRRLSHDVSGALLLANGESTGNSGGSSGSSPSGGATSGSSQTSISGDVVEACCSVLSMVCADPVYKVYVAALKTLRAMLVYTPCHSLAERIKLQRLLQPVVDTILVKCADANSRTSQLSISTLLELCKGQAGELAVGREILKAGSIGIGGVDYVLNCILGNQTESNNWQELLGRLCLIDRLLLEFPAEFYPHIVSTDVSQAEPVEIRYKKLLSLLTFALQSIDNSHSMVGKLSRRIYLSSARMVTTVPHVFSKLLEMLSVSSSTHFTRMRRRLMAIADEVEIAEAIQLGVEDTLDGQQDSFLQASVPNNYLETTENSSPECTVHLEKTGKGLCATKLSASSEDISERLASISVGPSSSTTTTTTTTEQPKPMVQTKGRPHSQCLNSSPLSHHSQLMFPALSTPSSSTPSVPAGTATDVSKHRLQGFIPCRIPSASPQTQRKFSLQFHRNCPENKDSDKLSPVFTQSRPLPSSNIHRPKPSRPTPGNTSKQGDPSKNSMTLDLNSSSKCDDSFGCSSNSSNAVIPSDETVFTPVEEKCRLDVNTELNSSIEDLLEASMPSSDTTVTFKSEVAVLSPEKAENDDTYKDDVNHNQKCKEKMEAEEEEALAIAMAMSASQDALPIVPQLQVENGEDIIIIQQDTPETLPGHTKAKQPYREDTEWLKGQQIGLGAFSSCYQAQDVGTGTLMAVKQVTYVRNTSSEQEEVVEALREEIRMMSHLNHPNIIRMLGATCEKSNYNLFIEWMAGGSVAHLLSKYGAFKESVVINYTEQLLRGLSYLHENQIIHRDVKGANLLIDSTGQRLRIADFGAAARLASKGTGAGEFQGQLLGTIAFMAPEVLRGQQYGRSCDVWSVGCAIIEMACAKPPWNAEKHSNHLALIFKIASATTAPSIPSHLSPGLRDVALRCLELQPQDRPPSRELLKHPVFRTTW
Sequence of panel of 468 diverse kinases (Homo sapiens, UniProt P29376) (P29376 17-864 limits assumed): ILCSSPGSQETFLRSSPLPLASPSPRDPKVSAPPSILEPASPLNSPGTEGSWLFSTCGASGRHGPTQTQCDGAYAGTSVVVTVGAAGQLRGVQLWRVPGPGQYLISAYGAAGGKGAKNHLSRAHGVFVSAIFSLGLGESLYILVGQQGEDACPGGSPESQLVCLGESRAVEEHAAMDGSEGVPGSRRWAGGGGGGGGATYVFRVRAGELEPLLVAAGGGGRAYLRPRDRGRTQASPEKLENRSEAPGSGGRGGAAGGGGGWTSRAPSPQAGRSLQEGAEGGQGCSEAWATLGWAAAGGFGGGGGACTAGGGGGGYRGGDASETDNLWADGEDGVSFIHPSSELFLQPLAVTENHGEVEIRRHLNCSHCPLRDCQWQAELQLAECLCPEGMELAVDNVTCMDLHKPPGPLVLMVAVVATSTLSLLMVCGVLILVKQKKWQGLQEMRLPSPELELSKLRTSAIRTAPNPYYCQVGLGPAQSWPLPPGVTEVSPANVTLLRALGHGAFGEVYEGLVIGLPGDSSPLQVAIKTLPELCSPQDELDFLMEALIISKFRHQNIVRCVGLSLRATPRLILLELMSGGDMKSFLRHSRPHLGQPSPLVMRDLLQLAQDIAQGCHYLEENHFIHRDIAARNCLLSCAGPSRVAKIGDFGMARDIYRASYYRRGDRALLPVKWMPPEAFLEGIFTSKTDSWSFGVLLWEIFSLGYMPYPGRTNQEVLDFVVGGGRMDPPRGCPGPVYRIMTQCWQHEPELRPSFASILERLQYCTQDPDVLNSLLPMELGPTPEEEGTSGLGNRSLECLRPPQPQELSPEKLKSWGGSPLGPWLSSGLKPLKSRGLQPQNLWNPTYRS
Sequence of panel of 468 diverse kinases (Homo sapiens, UniProt Q16288) (Q16288 32-839 limits assumed): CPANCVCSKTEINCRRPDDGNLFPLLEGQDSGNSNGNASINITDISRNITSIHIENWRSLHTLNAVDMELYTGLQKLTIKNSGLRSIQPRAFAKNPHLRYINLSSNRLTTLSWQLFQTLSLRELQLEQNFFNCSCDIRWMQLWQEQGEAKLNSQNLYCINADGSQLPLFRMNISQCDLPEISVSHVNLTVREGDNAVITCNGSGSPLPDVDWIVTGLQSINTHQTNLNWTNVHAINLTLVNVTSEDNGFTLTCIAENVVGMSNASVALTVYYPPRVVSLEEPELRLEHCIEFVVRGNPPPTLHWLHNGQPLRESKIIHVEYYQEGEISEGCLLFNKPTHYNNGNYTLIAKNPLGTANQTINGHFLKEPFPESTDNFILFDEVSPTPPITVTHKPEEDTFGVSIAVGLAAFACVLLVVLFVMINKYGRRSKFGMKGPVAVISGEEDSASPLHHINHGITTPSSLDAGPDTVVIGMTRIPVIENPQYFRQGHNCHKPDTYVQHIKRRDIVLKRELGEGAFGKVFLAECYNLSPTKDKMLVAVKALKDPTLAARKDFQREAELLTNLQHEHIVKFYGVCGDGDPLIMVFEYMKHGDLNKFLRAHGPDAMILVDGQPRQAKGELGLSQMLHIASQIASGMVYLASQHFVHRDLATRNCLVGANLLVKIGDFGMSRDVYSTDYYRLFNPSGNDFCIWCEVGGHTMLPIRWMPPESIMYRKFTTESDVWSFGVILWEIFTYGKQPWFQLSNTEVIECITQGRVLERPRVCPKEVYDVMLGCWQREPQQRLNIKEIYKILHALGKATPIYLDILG

Which results are given for `COc1cc2nc(NC3CC3)nc(NC3CCN(C(C)C)CC3)c2cc1OC` [Formula IV]?
remaining activity at 1 µM [1]: 54%; remaining activity at 1 µM [2]: 100%; remaining activity at 1 µM [3]: 100%; remaining activity at 1 µM [4]: 77%; remaining activity at 1 µM [5]: 100%; remaining activity at 1 µM [6]: 45%; remaining activity at 1 µM [7]: 71%; remaining activity at 1 µM [8]: 100%; remaining activity at 1 µM [9]: 58%; remaining activity at 1 µM [10]: 99%; remaining activity at 1 µM [11]: 95%; remaining activity at 1 µM [12]: 87%; remaining activity at 1 µM [13]: 93%; remaining activity at 1 µM [14]: 100%; remaining activity at 1 µM [15]: 84%; remaining activity at 1 µM [16]: 99%; remaining activity at 1 µM [17]: 78%; remaining activity at 1 µM ([18]; RPS6KA5(Kin.Dom.1-N-terminal)): 75%; remaining activity at 1 µM ([18]; RPS6KA5(Kin.Dom.2-C-terminal)): 100%; remaining activity at 1 µM [19]: 100%; remaining activity at 1 µM [20]: 100%; remaining activity at 1 µM [21]: 62%; remaining activity at 1 µM [22]: 82%; remaining activity at 1 µM [23]: 60%; remaining activity at 1 µM [24]: 100%; remaining activity at 1 µM [25]: 53%; remaining activity at 1 µM [26]: 100%; remaining activity at 1 µM [27]: 99%; remaining activity at 1 µM [28]: 78%; remaining activity at 1 µM [29]: 100%; remaining activity at 1 µM [30]: 100%; remaining activity at 1 µM [31]: 100%
